Source: PMC10102849 (Clinical cancer research : an official journal of the …, 2023)

What was measured:
JH-2-002 cells = format: cell-based, human; settings: 72 hours
JW23.3 cells = format: cell-based, murine; settings: 72 hours
MPNST-724 cells = format: cell-based, human; settings: 3 days
[1] = test system: JW23.3, JH-2-002, and MPNST-724 cells; assay: IncuCyte proliferation assay, range stated over three MPNST cell lines; format: cell-based; settings: 72 h, read-out: IC50 for inhibition of cell confluence, range over cell lines

| Compound | effect on percent cell confluence / proliferation (JH-2-002 cells) | effect on percent cell confluence / proliferation (JW23.3 cells) | effect on proliferation (MPNST-724 cells) | IC50 [1] [nM] |
| --- | --- | --- | --- | --- |
| CCS(=O)(=O)N1CC(CC#N)(n2cc(-c3ncnc4[nH]ccc34)cn2)C1 [baricitinib] | decreased cell proliferation at higher doses | decreased cell proliferation at higher doses | – | – |
| O=C(NOC[C@H](O)CO)c1ccc(F)c(F)c1Nc1ccc(I)cc1F [mirdametinib] | dose-dependently reduced | dose-dependently reduced | dose-dependently reduced | 220 to 1220 |
